From patent US10093716B2, “Methods for treating cancer” (UCL BUSINESS PLC, priority 2013, dated 2018) come the findings set out here.

In one experiment the test system is A549 cells. Put plainly: xCELLigence migration assay, A549. It is filed as cell-based, human. As to conditions: 100 μg/ml recombinant receptor-Fc protein during migration, FIG. 1F. The method, then: siRNA-mediated knockdown. Knockdown experiments were performed by transient transfection of RISC-free control siRNA, siRNA pools or single sequences (Dharmacon) to silence the indicated proteins using Dharmafect I (Dharmacon) following the instruction manual. All cell lines were incubated for 48 h to achieve sufficient knockdown.
Migration assays. Migration assays were performed using the xCELLigence System (Roche) according to manufacturer's instructions. See Supplementary Methods for detailed description.
Migration assays were performed using the xCELLigence System (Roche) that uses specially designed microtiter plates containing gold microelectrodes to measure electrical impedance of cells adhering to electrodes in real time. Increased impedance of background control wells was subtracted from all other values, the increase in electrical impedance/migration of control siRNA-transfected/control vector-infected cells was then defined as 100% migration and relative migration of all other transfected samples was calculated as compared to control-transfected cells, accordingly. Migration plates (CIM 16) are based on the Boyden chamber principle, the lower surface of the filter is covered with microelectrodes measuring cells that have migrated through the pores and adhere to the lower surface of the filter in real time. […]

Another experiment concerns A549-luc cells. Put plainly: Experimental lung metastasis model, A549-luc cells injected into tail vein. It is filed as in vivo, SCID beige mice. Particulars: 0.5 mg/mouse i.p., 3× per week starting 1 day after cell injection; bioluminescence after 2 weeks; FIG. 3D. How it is done: FIGS. 3A-3D| KRAS-mutated cells require autocrine TRAIL-R2-mediated migration for metastasis formation. FIG. 3A, 2×10^6 A549-luc cells infected with shTRAIL-R2 or control vector were injected into the tail vein of SCID beige mice. Metastatic burden in the lungs was detected after three weeks by quantification of bioluminescence (Photons/second). Three representative mice from each group are shown (n=9/group). FIG. 3B, FIG. 3C Five lungs from each group that were closest to the average value of the respective group in the H&E quantification were subjected to further Ki67 and TUNEL stainings and quantified as Ki67 and TUNEL positive area within tumor nodules, respectively. Representative images are shown. FIG. 3D, A549-luc parental cells were injected as in FIG. 3A, mice were treated with Vehicle (PBS) or 0.5 mg TRAIL-R2-Fc/mouse starting the next day, 3× per week.
Bioluminescence was determined after 2 weeks, representative mice are shown (n=8/group). Arrows indicate Ki67/TUNEL-positive cells. Dots represent individual lungs. Values are means+/−SEM; ns, not significant; * P<0.05 Student's t-test.
Animal Models. […] Photons per second (Photon Flux) were quantified using the Ivis Spectrum software. […] After one week, tumours were palpable and their size was measured by caliper. […]

The test system of experiment [1] is Rac1. In words: Rac1 pulldown assay (GTP-bound Rac1, PAK1-beads), A549. In kind it is cell-based, human. Particulars: A549 cells, iz-TRAIL 100 ng/ml; FIG. 8E. The method, then:
FIGS. 8A-8J| Autocrine TRAIL is required for caspase-independent migration and Rac1 activation. FIG. 8A, DLD-1 cells were transfected with the indicated siRNAs and subjected to migration assays. FIG. 8B, A549 cells were treated with DMSO or 10 μM zVAD-fmk and were subsequently subjected to migration assays. FIG. 8C, Dominant negative FADD (dnFADD)-overexpressing DLD-1 cells were transfected with the indicated siRNAs and subjected to migration assays. FIG. 8D, Parental and DLD-1 cells overexpressing dnFADD were treated with 1 μg/ml iz-TRAIL for the indicated times, subsequently lysed and subjected to Western blot analysis. FIG. 8E, A549 cells were treated with iz-TRAIL (100 ng/ml) for the indicated times and subjected to pulldown of GTP-bound Rac1 using PAK1-beads (Millipore-Rac1 activation kit). Cell lysates were subsequently analyzed by Western blotting. FIG. 8F, Control or shTRAIL-R2-infected A549 cells were subjected to pulldown of GTP-bound Rac1 as in FIG. 8E. FIG. 8G, A549 cells were transfected with the indicated siRNAs and subjected to migration assays. FIG. 8H, KRAS-mutated (DLD-1, HCT116) and isogenic KRAS-WT (DKO4, Hkh-2) cell lines were lysed and subjected to Western blotting. FIG. 8I, KRAS-mutated H460 cells were transfected with the indicated siRNAs. […]
2.5×10^6 cells were seeded into 10 cm dishes. […] Proteins were separated by SDS-PAGE (NuPAGE) and analyzed by Western blotting.

Experiment [2] concerns Rac1. In words: Rac1 pulldown assay (GTP-bound Rac1, PAK1-beads), isogenic DLD-1 and DKO4. Particulars: isogenic KRAS-mutated DLD-1 versus KRAS-WT DKO4, iz-TRAIL 100 ng/ml; FIG. 7E. In kind it is cell-based, human. How it is done: FIGS. 7A-7F| Autocrine migration is independent of the DISC but requires Rac1. FIG. 7A, FADD-deficient clones 10, 41 and 50 were transfected with the indicated siRNAs and subjected to migration assays. FIG. 7B, Control vector-infected or shTRAIL-R2-infected A549 cells were fixed and stained using Texas red-coupled phalloidin and DAPI. Representative confocal images are shown (×400).c, A549 cells were treated with DMSO, PD98059 (10 μM), PIK75 (100 nM) or NSC23766 (100 μM) and subjected to migration assays. FIG. 7D, A549 cells were transfected with the indicated siRNAs and subjected to migration assays. FIG. 7E, Isogenic DLD-1 and DKO4 cells were treated with iz-TRAIL (100 ng/ml) for the indicated times and then subjected to pulldown of GTP-bound Rac1 using PAK1-beads (Millipore-Rac1 activation kit). FIG. 7F, KRAS-WT DKO4 cells were transfected with the indicated siRNAs and prior to migration treated with vehicle (H2O) or 10 μM Y27632. Representative Western blots are shown.
2.5×10^6 cells were seeded into 10 cm dishes. The next day, cells were incubated with and without 100 ng/ml iz-TRAIL. Cell lysis and Rac1 pulldown was performed using a Rac1-pulldown kit (Millipore) according to the manufacturer's instructions. Proteins were separated by SDS-PAGE (NuPAGE) and analyzed by Western blotting.

For “TRAIL-R2-Fc fusion protein: majority of the extracellular domain of human TRAIL-R2 fused to the Fc portion of human IgG1 (SEQ ID NO: 15); TRAIL-inhibiting”, in the experiment with A549 cells, the “migration (normalized to PBS-treated cells)” value was “suppressed migration to a similar extent”. Besides, in the experiment on A549-luc cells, the “metastasis (metastatic burden in lungs, bioluminescence)” value is on record as “significantly reduced metastasis”.

B1: TRAIL: recombinant iz-TRAIL produced in E. coli, LPS-free after purification (protein)
chain: MAMMEVQGGPSLGQTCVLIVIFTVLLQSLCVAVTYVYFTNELKQMQDKYSKSGIACFLKEDDSYWDPNDEESMNSPCWQVKWQLRQLVRKMILRTSEETISTVQEKQQNISPLVRERGPQRVAAHITGTRGRSNTLSSPNSKNEKALGRKINSWESSRSGHSFLSNLHLRNGELVIHEKGFYYIYSQTYFRFQEEIKENTKNDKQMVQYIYKYTSYPDPILLMKSARNSCWSKDAEYGLYSIYQGGIFELKENDRIFVSVTNEHLIDMDHEASFFGAFLVG
B1: the figures for the “Rac1 activation (GTP-bound Rac1 pulldown)” value in the experiment with Rac1 [1] and in the experiment on Rac1 [2] were “able to activate Rac1” and “only capable of doing so in KRAS-mutated cells”, respectively.
